According to US10513524B2, “PDE9 inhibitors with imidazo triazinone backbone and imidazo pyrazinone backbone for treatment of peripheral diseases” (H. LUNDBECK A/S, priority 2015, dated 2019):

Assays:
PDE1 = PDE1 inhibition assay; format: biochemical; settings: 15 nM tritium labelled cAMP, SPA beads, 1 h at room temperature
Method: Reactions were initiated by addition of the cyclic nucleotide substrate, and reactions were allowed to proceed for 1 h at room temperature before being terminated through mixing with 20 μL (0.2 mg) yttrium silicate SPA beads (PerkinElmer).

[1] = Blood Brain Barrier penetration (brain-to-plasma distribution); format: in vivo; settings: male CD mice, subcutaneous 10 mg/kg; for Kp at 0.5 h / Kp at 2 h: mouse, brain/plasma, sc; for Brain concentration after 30 minutes / Plasma concentration after 30 minutes / Kp at 0.5 h: 30 min; for Kp at 0.5 h: read-out: Brain/Plasma ratio after 30 minutes; for Brain concentration after 120 minutes / Plasma concentration after 120 minutes / Kp at 2 h: 120 min; for Kp at 2 h: read-out: Brain/Plasma ratio after 120 minutes
Method: Male CD mice (20-24 g) were housed pair-wise with free access to food and water for an acclimatization period of 3-7 days before initiation of experiments. Prior to dosing the animals were fasted overnight. During testing, mice were kept in individual cages. The brain-to-plasma distribution was assessed 30 minutes and 2 hours after subcutaneous administration of the test compound at a dose of 10 mg/kg (n=3 at each time point). The dose volume was 10 ml/kg using appropriate vehicle to solubilize each test compound. At the time of sampling, animals were anesthetized with isoflurane and a systemic blood sample collected by cardiac puncture into vacutainers containing sodium heparin as anti-coagulant. The blood was centrifuged at 3500 rpm for 10 minutes at 4° C. to obtain plasma. Following decapitation, brains were dissected out and transferred to pre-weighed vessels followed by tissue weights determination. Plasma and brains were stored at −80° C. until quantitative bioanalysis by LC-MS/MS. Results are expressed as ng/ml for plasma and ng/g for brain samples.

Structure (SMILES)	IC50 (PDE1)	Brain concentration after 30 minutes [1]	Plasma concentration after 30 minutes [1]	Brain concentration after 120 minutes [1]	Plasma concentration after 120 minutes [1]	Kp at 0.5 h [1]	Kp at 2 h [1]
C[C@@H]1CN(Cc2ncccn2)C[C@H]1c1nc2c(cnn2C2CCOCC2)c(=O)[nH]1 (single isomer, unassigned) [Reference compound, reference compound]	2.5 µM						
O=c1[nH]c(CN2CC(Oc3cccnc3)C2)cn2c(C3CCOCC3)ncc12 [Compound (P2), 6-[3-(pyridin-3-yloxy)-azetidin-1-ylmethyl]-3-(tetrahydropyran-4-yl)-7H-imidazo[1,5-a]pyrazin-8-one]	5.28 µM	Below detection	30 min.: 715 ng/mL	Below detection	120 min.: 11 ng/mL		
O=c1[nH]c(CN2CC(Oc3ccncc3)C2)cn2c(-c3ccc(F)cc3)ncc12 [Compound (P1), 3-(4-fluorophenyl)-6-((3-(pyridin-4-yloxy)azetidin-1-yl)methyl)imidazo[1,5-a]pyrazin-8(7H)-one]	45.1 µM	30 min.: 42 ng/mL	30 min.: 719 ng/mL	120 min.: 7 ng/mL	120 min.: 86 ng/mL	0.06	0.08
C[C@@H]1CN(Cc2ncccn2)C[C@H]1c1cn2c(C3CCOCC3)ncc2c(=O)[nH]1 (single isomer, unassigned) [Compound (P3, enantiomer 1)]	3 µM	30 min.: 67 ng/mL	30 min.: 1620 ng/mL	120 min.: 7 ng/mL	120 min.: 226 ng/mL	0.04	0.03
O=c1[nH]c(CN2CC(OCc3ccc(F)cc3)C2)nn2c(C3CCOCC3)ncc12 [Compound (P4)]		30 min.: 125 ng/mL	30 min.: 3380 ng/mL	120 min.: 15 ng/mL	120 min. 352 ng/mL		
